From patent US6748900B2, “Methods for growing and imprinting fish using an odorant” (MariCal, Inc., priority 2001, dated 2004)
Entries after “also recorded” stand apart in the source; their conditions may differ.

What was measured:
[1] = system: olfactory epithelium of freshwater adapted juvenile salmon; test: Extracellular electrical potentials (EEG) from olfactory nerve after bolus stimuli to the olfactory epithelium in distilled water; format: in vivo, Atlantic salmon (Salmo salar); details: for concentration dependence of olfactory nerve impulse: exposure of fish olfactory epithelium
Text: The present invention provides methods for identifying and/or quantifying the effects of PVCR modulators on olfactory receptor sensing and visa versa. The present invention also includes methods for determining whether a compound is an odorant. When fish are exposed to an odorant (e.g., the odorant binds to olfactory lamellae), the odorant binds to the olfactory epithelium of the fish, which leads to the generation of a nerve impulse. The electric potential of the impulse can be measured using methods known in the art, or those later developed. One example of a method that can be used to measure electric potential is an electroencephalogram, commonly referred to as an EEG. Example 3 describes in detail how to measure nerve impulse of fish, and in particular, as it relates to modulation of the PVCR in the olfactory apparatus of the fish. Briefly, the fish are anaesthetized and placed in V-clamp apparatus where its gills were irrigated continuously with aerated seawater and its nasal lamellae bathed continuously by a stream of distilled water via a tube held in position in the inhalant olfactory opening. The olfactory nerves of the fish were exposed by removal of overlying bony structures. Odorants to be tested can be delivered as boluses to the olfactory epithelium via a 3 way valve where 1 cc of water containing the stimulus was rapidly injected into the tube containing a continuously stream of distilled water. […] The results can be analyzed by computer using compatible software.
(§1) Physiol. A 127:157-166 (1975), and Hubbard, PC, et al., Olfactory sensitivity to changes in environmental Ca2+ in the marine teleost Sparus Aurata, J. Exp. Biol. 203:3821-3829 (2000). After anaesthetizing the fish, it was placed in V-clamp apparatus where its gills were irrigated continuously with aerated seawater and its nasal lamellae bathed continuously by a stream of distilled water via a tube held in position in the inhalant olfactory opening. The olfactory nerves of the fish were exposed by removal of overlying bony structures. Stimuli were delivered as boluses to the olfactory epithelium via a 3 way valve where 1 cc of water containing the stimulus was rapidly injected into the tube containing a continuously stream of distilled water. […] Using this experimental approach, stable and reproducible recordings could be obtained for up to 6 hr after the initial surgery on the fish.
Similarly, exposure of olfactory epithelium to the PVCR agonist Gd^3+ produces responses of a similar magnitude to those evoked by Ca^2+ in a concentration range of 1-10 micromolar. […] These dose response curves (EC50 Gd^+3≦Ca^2+<Mg^2+) are similar to those obtained for PVCR modulated responses in other fish epithelium (flounder urinary bladder NaCl-mediated water transport-see SKCaR application).

[2] = system: nasal lamellae of Atlantic salmon; test: Olfactory response to stimuli alone or in combination with 500 mM NaCl (FIGS. 12B-12D); format: in vivo, Atlantic salmon (Salmo salar)
Procedure: Stimuli were delivered to the olfactory epithelium via a glass capillary tube placed in the inhalant olfactory opening. This tube was connected to a gravity fed tubing system allowing for switching from a background perfusion (charcoal filtered freshwater) to an experimental stimulus while maintaining a flow rate of 6-8 ml/min. Verification of the location of the stimulus delivery tubes and electrode was made by observing responses to a ‘search stimulus’ of […].
Stimuli consisted of CaR agonists (CaCl2, MgCl2, GdCl3, SrCl2 and NaCl (Sigma-Aldrich), control freshwater stimulus (charcoal filtered tap water) and control seawater stimuli (ASW, Ca-free ASW, Divalent free ASW). Stimuli were presented alone or in combination with 500 mM NaCl. Ringers and artificial seawater recipes were obtained from the Biological Bulletin Compendia (all concentrations are in mM) ASW (nAcl 423, KCl 9.0, CaCl2 22.94, MgSO4 25.50, NaHCO3 2.14, pH 8.0); Ca-free ASW (NaCl 436.71, KCl 9.0, MgCl2 22.94, MgSO4, 25.5, NaHCO3 2.14, pH 8.0); Divalent free ASW (NaCl 461.85, KCl 10.73, NAHCO3 2.14, Na2SO4 7.04, pH 8.0); FW Teleost Ringer's (NaCl 111.0, KCl 5.37, Cacl2 1.0, MgSO4, 0.6, HEPES 5.0, pH 7.3).

olfactory epithelium = test: Olfactory nerve recording: PVCR agonists added to a repellant (finger rinse) or an attractant (L-alanine); format: in vivo, Atlantic salmon (Salmo salar); details: for effect on response of olfactory epithelium to mammalian finger rinse: FIG. 13
Text: as §1
The ablation of responses to both the PVCR agonists as shown in FIG. 12A as well as mammalian finger rinse indicate that there are some complex interactions between PVCR proteins and other odorant receptors. It is also extremely unlikely that inclusion of PVCR agonists removed all the stimulatory components of mammalian finger rinse from solution such that they were not able to stimulate the epithelium.

[3] = system: shark kidney calcium receptor (SKCaR); test: FURA-2 ratio imaging fluorescence of HEK cells stably expressing SKCaR; format: cell-based, dogfish (Squalus acanthias); details: 10 mM amino acid; for effect on SKCaR's response to a given Ca^2+ concentration: FIG. 16
Procedure: Full length recombinant dogfish (Squalus acanthias) shark kidney calcium receptor (SKCaR) was expressed in human embryonic kidney cells using methods described herein. The ability of SKCaR to respond to individual amino acids as well as various mixtures was quantified using FURA-2 ratio imaging fluorescence.
Baseline extracellular Ca^2+ concentration was 0.5 mM. Aliquots of Ca^2+ were added to produce final extracellular concentrations of 2.5 mM, 5 mM, 7.5 mM, 10 mM and 20 mM Ca^2+ with changes in the fluorescence recorded. Note that increases in cell fluorescence were greater in the presence of 10 mM Phe for extracellular Ca^2+ concentrations less than 10 mM.

[4] = 1 mM agonist with 500 mM NaCl, FIG. 12D
[5] = 500 micromolar stimulus, FIG. 11

Compound: [Ca+2] [Ca^2+, calcium]
- olfactory nerve response (EEG activity) ([1]; 1 mM stimulus, FIG. 11): responses in EEG activity
- olfactory nerve response (EEG activity) ([1]; 1 mM stimulus, FIG. 11, listed as calcium): existence of an olfactory recording
- EC50 ([1]; FIG. 12A, responses normalized to 10 mM Ca^2+, multiple fish, read-out: half maximal excitatory response (EC50)): 1 to 10 µM
- concentration dependence of olfactory nerve impulse [1]: concentration-dependent olfactory nerve impulse
- effect on olfactory response to 500 mM NaCl [2, 4]: significantly reduce the olfactory response
- olfactory response in a 500 mM NaCl solution ([2]; 10 mM in 500 mM NaCl, FIG. 12C): identical to that produced by artificial seawater (ASW) exposure
- effect on olfactory response produced by 500 mM NaCl ([2]; FIG. 12C, various concentrations in 500 mM NaCl): reduces the olfactory response
- effect on olfactory nerve response to 500 micromolar L-alanine (olfactory epithelium; 5 mM added, FIG. 14 recording #2): complete loss of the corresponding response
- effect on response of olfactory epithelium to mammalian finger rinse (olfactory epithelium; 5 mM agonist included): reversibly ablated the response
- response to subsequent identical L-alanine stimulus without the agonist (olfactory epithelium; after 5 mM, FIG. 14 recording #3): return of the signal

Compound: [Gd+3] [Gd^3+, gadolinium]
- olfactory nerve response ([1]; 50 micromolar stimulus, FIG. 11, listed as Gadolinium): existence of an olfactory recording
- olfactory nerve response ([1]; 50 micromolar stimulus, FIG. 11, listed as gadolinium): obtained a response
- concentration range producing responses of a similar magnitude to those evoked by Ca^2+ ([1]; FIG. 12A): 1 to 10 µM
- concentration dependence of olfactory nerve impulse [1]: concentration-dependent olfactory nerve impulse
- effect on olfactory response to 500 mM NaCl ([2]; 50 micromolar agonist with 500 mM NaCl, FIG. 12D): significantly reduce the olfactory response
- effect on olfactory nerve response to 500 micromolar L-alanine (olfactory epithelium; 50 micromolar added, FIG. 14 recording #7): complete loss of the corresponding response
- effect on response of olfactory epithelium to mammalian finger rinse (olfactory epithelium; 50 micromolar agonist included): reversibly ablated the response
- effect on response of olfactory epithelium to mammalian finger rinse (olfactory epithelium; 50 micromolar agonist included, listed as gadolinium): reversibly altered
- response to subsequent identical L-alanine stimulus without the agonist (olfactory epithelium; after 50 micromolar, FIG. 14 recording #8 vs #6): return of the signal; also recorded: decreased as compared to control

Compound: CC[C@H](C)[C@H](N)C(=O)O [Ile, L-Isoleucine]
- effect on SKCaR's response to a given Ca^2+ concentration [3]: increase SKCaR's response

Compound: C[C@H](N)C(=O)O [L-alanine]
- duration of olfactory nerve response [1, 5]: approximately 2 seconds
- olfactory nerve response [1, 5]: large increases in both the firing frequency and amplitude; also recorded: existence of an olfactory recording

Compound: [Mg+2] [Mg^2+, magnesium]
- concentration at which olfactory epithelium responses first occur ([1]; FIG. 12A): 10 to 100 µM
- concentration dependence of olfactory nerve impulse [1]: concentration-dependent olfactory nerve impulse
- effect on olfactory response to 500 mM NaCl [2, 4]: significantly reduce the olfactory response

Compound: [Cl-].[Na+] [NaCl, sodium chloride]
- olfactory nerve response (EEG activity) ([1]; 250 mM stimulus, FIG. 11): responses in EEG activity; also recorded: existence of an olfactory recording
- concentration until which olfactory epithelium is unresponsive ([1]; FIG. 12A): 250 millimolar
- olfactory response to irrigation of the nasal lamellae ([2]; 500 mM alone, FIG. 12D): large response
- response to subsequent L-Alanine alone (olfactory epithelium; after 250 mM, FIG. 14 recordings #5 and #10): enhanced response to L-Alanine alone

Compound: N[C@@H](Cc1ccccc1)C(=O)O [Phe, L-Phenylalanine]
- effect on SKCaR's response to a given Ca^2+ concentration [3]: increase SKCaR's response
- increases in cell fluorescence on addition of extracellular Ca^2+ ([3]; extracellular Ca^2+ less than 10 mM, FIG. 15): greater

Compound: [Sr+2] [Sr2+, strontium]
- effect on olfactory response to 500 mM NaCl [2, 4]: significantly reduce the olfactory response

Compound: neomycin
- concentration dependence of olfactory nerve impulse [1]: concentration-dependent olfactory nerve impulse
